The supplement of paper PMC5908809

Columns and labels:
[1] = tested on: normal NK cells expanded with K562-aAPC; assay: percent inhibition of viability; higher = more inhibition; details: 72 h, IL-2 2.5 ng/mL
Procedure: (§1)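 Drug sensitivity and resistance testing on K562-aAPC-expanded normal NK cells: 5 concentrations (10-fold steps over a 10,000-fold range), 72 h at 37 °C, viability by CellTiter-Glo normalised to DMSO and benzethonium chloride controls; DSS from the fitted curve.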

DERL-7 (IL-2 2.5 ng/mL) [2] = assay: as above; details: 72 h
IMC-1 (IL-2 20 ng/mL) [3] = assay: as above; details: 72 h
KAI3 (IL-2 2.5 ng/mL) [4] = assay: as above; details: 72 h
KHYG-1 (IL-2 2.5 ng/mL) [5] = assay: as above; details: 72 h
NK-92 (IL-2 2.5 ng/mL) [6] = assay: as above; details: 72 h
NK-YS (IL-2 2.5 ng/mL) [7] = assay: as above; details: 72 h
NKL (IL-2 2.5 ng/mL) [8] = assay: as above; details: 72 h
SNK-6 (IL-2 2.5 ng/mL) [9] = assay: as above; details: 72 h
YT (IL-2 2.5 ng/mL) [10] = assay: as above; details: 72 h
[11] = tested on: normal primary NK cells, pool 1 (3 donors) (IL-2 2.5 ng/mL); assay: as above; details: 72 h
[12] = tested on: normal primary NK cells, pool 1 (3 donors), resting (IL-2 0 ng/mL); assay: as above; details: 72 h
[13] = tested on: normal primary NK cells, pool 2 (3 donors) (IL-2 2.5 ng/mL); assay: as above; details: 72 h
[14] = tested on: normal primary NK cells, pool 3 (3 donors) (IL-2 2.5 ng/mL); assay: as above; details: 72 h
[15] = tested on: normal NK cells expanded with K562-aAPC; assay: drug sensitivity score (DSS) (DSS units); higher = more sensitive; extreme values may be limits of the assay; details: 72 h; IL-2 2.5 ng/mL
Procedure: as §1

DERL-7 (IL-2 2.5 ng/mL) [16] = assay: as above; details: 72 h
IMC-1 (IL-2 20 ng/mL) [17] = assay: as above; details: 72 h
KAI3 (IL-2 2.5 ng/mL) [18] = assay: as above; details: 72 h
KHYG-1 (IL-2 2.5 ng/mL) [19] = assay: as above; details: 72 h
NK-92 (IL-2 2.5 ng/mL) [20] = assay: as above; details: 72 h
NK-YS (IL-2 2.5 ng/mL) [21] = assay: as above; details: 72 h
NKL (IL-2 2.5 ng/mL) [22] = assay: as above; details: 72 h
SNK-6 (IL-2 2.5 ng/mL) [23] = assay: as above; details: 72 h
YT (IL-2 2.5 ng/mL) [24] = assay: as above; details: 72 h
[25] = tested on: normal primary NK cells, pool 1 (3 donors) (IL-2 2.5 ng/mL); assay: as above; details: 72 h
[26] = tested on: normal primary NK cells, pool 1 (3 donors), resting (IL-2 0 ng/mL); assay: as above; details: 72 h
[27] = tested on: normal primary NK cells, pool 2 (3 donors) (IL-2 2.5 ng/mL); assay: as above; details: 72 h
[28] = tested on: normal primary NK cells, pool 3 (3 donors) (IL-2 2.5 ng/mL); assay: as above; details: 72 h

CN[C@@H](C)C(=O)N[C@H]1CN(C(=O)CC(C)C)CC[C@H]2CC[C@@H](C(=O)NC(c3ccccc3)c3ccccc3)N2C1=O [AT-406] (max concentration tested 10000 nM)
percent inhibition of viability [%]
Details	1 nM	10 nM	100 nM	1000 nM	10000 nM
DERL-7 (IL-2 2.5 ng/mL) [2]	-6.8	8.09	10.6	21.5	39.4
IMC-1 (IL-2 20 ng/mL) [3]	-6.88	-6.17	4.87	17.4	12.2
KAI3 (IL-2 2.5 ng/mL) [4]	0.46	-9.34	-3.88	10.2	62.7
KHYG-1 (IL-2 2.5 ng/mL) [5]	-3.13	-12.2	-7.84	25.9	91.8
NK-92 (IL-2 2.5 ng/mL) [6]	-23.7	-16.2	3.03	13.5	49.2
NK-YS (IL-2 2.5 ng/mL) [7]	-5.59	-11.9	-8.91	-3.43	6.14
NKL (IL-2 2.5 ng/mL) [8]	2.76	0.59	0.42	22.9	30.9
SNK-6 (IL-2 2.5 ng/mL) [9]	-9.2	-11.9	-1.09	4.11	11.8
YT (IL-2 2.5 ng/mL) [10]	0.43	-2.82	-3.18	14.6	35.9
[1]	-3.38	-2.67	4.16	25.7	52.9
[11]	-7.15	1.28	15.2	27.8	74
[12]	-17.3	-12.3	13.9	28.4	73.2
[13]	-16.6	-8.69	4.59	20.9	64.6
[14]	-11.2	-10.2	2.26	13	61.8

Details	drug sensitivity score
DERL-7 (IL-2 2.5 ng/mL) [16]	4.83
IMC-1 (IL-2 20 ng/mL) [17]	2.57
KAI3 (IL-2 2.5 ng/mL) [18]	5.12
KHYG-1 (IL-2 2.5 ng/mL) [19]	8.94
NK-92 (IL-2 2.5 ng/mL) [20]	4.65
NK-YS (IL-2 2.5 ng/mL) [21]	0
NKL (IL-2 2.5 ng/mL) [22]	3.99
SNK-6 (IL-2 2.5 ng/mL) [23]	0.19
YT (IL-2 2.5 ng/mL) [24]	3.66
[15]	5.72
[25]	7.33
[26]	7.24
[27]	6.28
[28]	5.48

CC(C)Oc1cc(Nc2nc(N[C@@H](C)c3ccc(F)cn3)ncc2Cl)n[nH]1 [AZ-23] (max concentration tested 1000 nM)
percent inhibition of viability [%]
Details	0.1 nM	1 nM	10 nM	100 nM	1000 nM
DERL-7 (IL-2 2.5 ng/mL) [2]	-2.19	-3.08	4.42	0.42	18.3
IMC-1 (IL-2 20 ng/mL) [3]	1.36	2.7	8	5.82	6.35
KAI3 (IL-2 2.5 ng/mL) [4]	0.26	-1.15	7.26	4.08	33.3
KHYG-1 (IL-2 2.5 ng/mL) [5]	-3.32	3.62	8.53	3.55	16.2
NK-92 (IL-2 2.5 ng/mL) [6]	-8.37	-0.57	6.98	-18.1	-10.1
NK-YS (IL-2 2.5 ng/mL) [7]	-4.76	0.81	3.08	0.21	23.1
NKL (IL-2 2.5 ng/mL) [8]	-5.13	-8.13	11.5	13	49.2
SNK-6 (IL-2 2.5 ng/mL) [9]	-7.56	5.32	3.77	17.8	36.8
YT (IL-2 2.5 ng/mL) [10]	-1.34	0.79	6.32	-2.16	11.8
[1]	2.78	-2.04	0.04	9.24	31.4
[11]	-2.92	-1.19	-3.79	-5.46	7.88
[12]	-13.2	-3.44	-0.59	-21.9	-26.6
[13]	-2.37	-3.09	-7.97	98.9	20
[14]	-9.03	-10.1	-13.7	0.83	6.87

Details	drug sensitivity score
DERL-7 (IL-2 2.5 ng/mL) [16]	0.51
IMC-1 (IL-2 20 ng/mL) [17]	0
KAI3 (IL-2 2.5 ng/mL) [18]	2.21
KHYG-1 (IL-2 2.5 ng/mL) [19]	0.25
NK-92 (IL-2 2.5 ng/mL) [20]	0
NK-YS (IL-2 2.5 ng/mL) [21]	0.85
NKL (IL-2 2.5 ng/mL) [22]	4.11
SNK-6 (IL-2 2.5 ng/mL) [23]	3.55
YT (IL-2 2.5 ng/mL) [24]	0.01
[15]	2.75
[25]	0
[26]	0
[27]	7.86
[28]	0
